# Measurements: patent US20200317642A1, “AMINE-SUBSTITUTED HETEROCYCLIC COMPOUNDS AS EHMT2 INHIBITORS AND DERIVATIVES THEREOF” (Epizyme, Inc., priority 2017, published 2020)
# Where two headings read alike, the source gives them in different places.
# What was measured:
# [1] = tested on: H3K9me2 in MDA-MB-231 cells; test: MDA-MB-231 H3K9me2 in-cell western assay (EHMT2 ICW); assay type: cell-based; conditions: Homo sapiens
# Text: MDA-MB-231 cell line was purchased from ATCC (Manassas, Va., USA). RPMI/Glutamax medium, Penicillin-Streptomycin, Heat Inactivated Fetal Bovine Serum, and D-PBS were purchased from Life Technologies (Grand Island, N.Y., USA). Odyssey blocking buffer, 800 CW goat anti-mouse IgG (H+L) antibody, and Licor Odyssey Infrared Scanner were purchased from Licor Biosciences, Lincoln, Nebr., USA. H3K9me2 mouse monoclonal antibody (Cat #1220) was purchased from Abcam (Cambridge, Mass., USA). 16% Paraformaldehyde was purchased from Electron Microscopy Sciences, Hatfield, Pa., USA). MDA-MB-231 cells were maintained in complete growth medium (RPMI supplemented with 10% v/v heat inactivated fetal bovine serum) and cultured at 37° C. under 5% C02. UNC0638 was purchased from Sigma-Aldrich (St. Louis, Mo., USA).
# General Procedure for MDA-MB-231 HEK9me2 in-Cell Western Assay.
# Compound (100 nL) was added directly to 384-well cell plate. MDA-MB-231 cells (ATCC) were seeded in assay medium (RPMI/Glutamax supplemented with 10% v/v heat inactivated fetal bovine serum and 1% Penicillin/Streptomycin, Life Technologies) at a concentration of 3,000 cells per well to a Poly-D-Lysine coated 384-well cell culture plate with 50 μL per well. Plates were incubated at 37° C., 5% CO2 for 48 hours (BD Biosciences 356697). […] After the incubation, 50 μL per well of 8% paraformaldehyde (Electron Microscopy Sciences) in PBS was added to the plates and incubated at room temperature for 20 minutes. Plates were transferred to a Biotek 406 plate washer and washed 2 times with 100 μL per well of wash buffer (1×PBS containing 0.3% Triton X-100 (v/v)). Next, 60 μL per well of Odyssey blocking buffer (Licor Biosciences) was added to each plate and incubated for 1 hour at room temperature. Blocking buffer was removed and 20 μL of monoclonal primary antibody α-H3K9me2 (Abcam) diluted 1:800 in Odyssey buffer with 0.1% Tween 20 (v/v) were added and plates were incubated overnight (16 hours) at 4° C. Plates were washed 5 times with 100 μL per well of wash buffer. Next 20 μL per well of secondary antibody was added (1:500 800 CW donkey anti-mouse IgG (H+L) antibody (Licor Biosciences), 1:1000 DRAQ5 (Cell Signaling Technology) in Odyssey buffer with 0.1% Tween 20 (v/v)) and incubated for 1 hour at room temperature. The plates were washed 5 times with 100 μL per well wash buffer then 2 times with 100 μL per well of water. Plates were allowed to dry at room temperature then imaged on a Licor Odyssey Infrared Scanner (Licor Biosciences) which measured integrated intensity at 700 nm and 800 nm wavelengths. Both 700 and 800 channels were scanned.
# First, the ratio for each well was determined by:
# Each plate included fourteen control wells of DMSO only treatment (Minimum Inhibition) as well as fourteen control wells (background wells) for maximum inhibition treated with control compound UNC0638 (Background wells).
# The average of the ratio values for each well was calculated and used to determine the percent inhibition for each test well in the plate. Control compound was serially diluted three-fold in DMSO for a total of 10 test concentrations beginning at 1 μM. Percent inhibition was calculated as: […]
# IC50 curves were generated using triplicate wells per concentration of compound. The IC50 is the concentration of compound at which measured methylation is inhibited by 50% as interpolated from the dose response curves. IC50 values were calculated using a non-linear regression (variable slope-four parameter fit model) with by the following formula:
# where Top is fixed at 100% and Bottom is fixed to 0%, [I]=concentration of inhibitor, IC50=half maximal inhibitory concentration and n=Hill Slope.
# EHMT1 = molecular target: T1, EHMT1 (Homo sapiens, UniProt Q9H9B1); test: EHMT1 PEP enzyme assay; assay type: biochemical
# T1 sequence (Q9H9B1 1-1298): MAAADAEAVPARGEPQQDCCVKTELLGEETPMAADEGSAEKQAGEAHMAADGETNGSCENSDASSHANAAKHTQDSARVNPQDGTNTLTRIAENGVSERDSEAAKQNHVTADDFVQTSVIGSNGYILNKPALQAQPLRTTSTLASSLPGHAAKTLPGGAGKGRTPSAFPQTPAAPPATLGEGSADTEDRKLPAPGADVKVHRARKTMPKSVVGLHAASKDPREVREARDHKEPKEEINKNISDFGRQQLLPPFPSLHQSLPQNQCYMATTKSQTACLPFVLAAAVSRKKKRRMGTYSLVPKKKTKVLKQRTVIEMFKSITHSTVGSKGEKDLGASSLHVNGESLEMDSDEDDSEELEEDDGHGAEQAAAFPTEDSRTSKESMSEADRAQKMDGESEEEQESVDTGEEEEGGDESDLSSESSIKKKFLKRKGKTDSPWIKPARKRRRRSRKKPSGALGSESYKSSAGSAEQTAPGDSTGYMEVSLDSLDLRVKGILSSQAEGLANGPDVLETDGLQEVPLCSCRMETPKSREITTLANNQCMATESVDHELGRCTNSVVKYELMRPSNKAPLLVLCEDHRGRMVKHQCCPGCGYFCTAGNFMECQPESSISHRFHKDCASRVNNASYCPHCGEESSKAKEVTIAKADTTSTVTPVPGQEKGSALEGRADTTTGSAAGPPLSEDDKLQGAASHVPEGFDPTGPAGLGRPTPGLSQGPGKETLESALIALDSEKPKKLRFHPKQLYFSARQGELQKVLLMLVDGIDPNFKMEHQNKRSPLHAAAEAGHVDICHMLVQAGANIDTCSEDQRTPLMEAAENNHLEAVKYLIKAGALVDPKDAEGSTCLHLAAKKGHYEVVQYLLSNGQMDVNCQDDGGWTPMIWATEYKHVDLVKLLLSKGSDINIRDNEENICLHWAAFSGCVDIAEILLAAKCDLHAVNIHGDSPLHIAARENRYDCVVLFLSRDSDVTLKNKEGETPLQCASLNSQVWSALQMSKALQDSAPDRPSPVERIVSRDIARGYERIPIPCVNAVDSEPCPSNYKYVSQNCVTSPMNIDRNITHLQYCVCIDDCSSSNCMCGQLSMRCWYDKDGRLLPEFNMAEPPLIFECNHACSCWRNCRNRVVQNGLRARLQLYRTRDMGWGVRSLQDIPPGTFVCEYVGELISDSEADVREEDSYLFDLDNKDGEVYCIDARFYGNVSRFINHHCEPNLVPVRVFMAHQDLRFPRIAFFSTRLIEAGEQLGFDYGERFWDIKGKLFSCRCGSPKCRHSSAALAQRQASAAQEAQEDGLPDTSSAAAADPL
# [2] = Table 3A, read-out: ICW (IC50 μM)
# [3] = Table 3A, read-out: EHMT1 (IC50 μM)
# [4] = Table 3, read-out: EHMT2 ICW (IC50 μM)
# [5] = Table 3, read-out: EHMT1 PEP (IC50 μM)
SMILES,"IC50 [1, 2]",IC50 (EHMT1; [3]),"IC50 [1, 4]",IC50 (EHMT1; [5])
CNc1cc(C)nc(Nc2ccc(OC)c(CNC[C@@H](C)N3CCCC3)c2)n1 [Compound 42],,,1 to 10 µM,0.1 to 1 µM
CNc1cc(C)nc(Nc2ccc(Cl)c(C(=O)Nc3ccccc3)c2)n1 [Compound 10],,,> 10 µM,1 to 10 µM
CNc1cc(C)nc(Nc2ccc(Cl)c(C(=O)NCC3CCC3)c2)n1 [Compound 3],,,> 10 µM,0.1 to 1 µM
CCCCNC(=O)c1cc(Nc2nc(C)cc(NC)n2)ccc1Cl [Compound 9],,,1 to 10 µM,0.1 to 1 µM
CNc1cc(C)nc(Nc2ccc(OC)c(CNC[C@H](C)N3CCCC3)c2)n1 [Compound 43],,,> 10 µM,> 10 µM
"CNCc1cc(-c2c(OC)ccc(Nc3nc(C)cc(NC)n3)c2F)no1 [Compound A14, N2-(2-fluoro-4-methoxy-3-[5-[(methylamino)methyl]-1,2-oxazol-3-yl]phenyl)-N4,6-dimethylpyrimidine-2,4-diamine]",0.1 to 1 µM,< 0.01 µM,,
CNc1cc(C)nc(Nc2ccc(OC)c(C#CCNCCN(C)C)c2)n1 [Compound 49],,,1 to 10 µM,0.1 to 1 µM
CNc1cc(C)nc(Nc2ccc(C)c(C(=O)Nc3c[nH]cn3)c2)n1 [Compound 37],,,> 10 µM,1 to 10 µM
"CNCc1cn(-c2c(Cl)ccc(Nc3nc(C)cc(NC)n3)c2Cl)nn1 [Compound A13, N2-(2,4-dichloro-3-(4-((methylamino)methyl)-1H-1,2,3-triazol-1-yl)phenyl)-N4,6-dimethylpyrimidine-2,4-diamine]",0.01 to 0.1 µM,< 0.01 µM,,
CNc1cc(C)nc(Nc2ccc(C)c(C(=O)Nc3cn(C4CC4)cn3)c2)n1 [Compound 36],,,> 10 µM,> 10 µM
"CNc1cc(C)nc(Nc2ccc(OC)c(-n3cc4c(n3)CCNC4)c2F)n1 [Compound A19, N2-(2-fluoro-4-methoxy-3-(4,5,6,7-tetrahydro-2H-pyrazolo[4,3-c]pyridin-2-yl)phenyl)-N4,6-dimethylpyrimidine-2,4-diamine]",0.1 to 1 µM,0.1 to 1 µM,,
CNc1cc(C)nc(Nc2ccc(Cl)c(C(=O)NCCN3CCCC3)c2)n1 [Compound 7],,,1 to 10 µM,< 0.1 µM
CNc1cc(C)nc(Nc2ccc(OC)c(CN[C@@H](C)CN3CCCC3)c2)n1 [Compound 47],,,1 to 10 µM,0.1 to 1 µM
CNc1cc(C)nc(Nc2ccc(C)c(C(=O)Nc3cc(C#N)ccn3)c2)n1 [Compound 30],,,> 10 µM,1 to 10 µM
CNCc1cn(-c2c(OC)cc3c(c2F)N=C(NC)C32CCC2)nn1 [Compound A21],0.1 to 1 µM,0.01 to 0.1 µM,,
CNc1cc(C)nc(Nc2ccc(Cl)c(-n3cc(CN)cn3)c2Cl)n1 [Compound A6],0.01 to 0.1 µM,< 0.01 µM,,
CNc1cc(C)nc(Nc2ccc(OC)c(-n3cc(C4CCCN4)nn3)c2F)n1 (stereo not shown) [Compound A4],0.01 to 0.1 µM,< 0.01 µM,,
CNc1cc(C)nc(Nc2ccc(OC)c(-n3cc([C@@H]4CCCN4)nn3)c2F)n1 [Compound A4S],0.1 to 1 µM,0.01 to 0.1 µM,,
"CNCc1cn(-c2c(OC)ccc(Nc3nc(C)cc(NC)n3)c2F)nn1 [Compound A3, N2-(2-fluoro-4-methoxy-3-[4-[(methylamino)methyl]-1H-1,2,3-triazol-1-yl]phenyl)-N4,6-dimethylpyrimidine-2,4-diamine]",0.01 to 0.1 µM,< 0.01 µM,,

# Next, values leading:
"IC50 [1, 2]",IC50 (EHMT1; [3]),"IC50 [1, 4]",IC50 (EHMT1; [5]),SMILES
> 1 µM,0.1 to 1 µM,,,"CNC1=Nc2cc(-c3cc4n(n3)CCN(C)C4)c(Cl)cc2C12CCC2 [Compound A12, 5′-chloro-N-methyl-6′-(5-methyl-4,5,6,7-tetrahydropyrazolo[1,5-a]145yrazine-2-yl)spiro[cyclobutane-1,3′-indol]-2′-amine]"
,,1 to 10 µM,0.1 to 1 µM,CNc1cc(C)nc(Nc2ccc(OC)c(CNCCN3CCC[C@@H]3C)c2)n1 [Compound 32]
0.01 to 0.1 µM,< 0.01 µM,,,CNCc1cn(-c2cc(Nc3nc(C)cc(NC)n3)ccc2Cl)nn1 [Compound A1]
,,> 10 µM,> 10 µM,CNc1cc(C)nc(Nc2ccc(Cl)c(C(=O)NC3CCOCC3)c2)n1 [Compound 8]
,,> 10 µM,1 to 10 µM,CNc1cc(C)nc(Nc2ccc(Cl)c(C(=O)Nc3cccnn3)c2)n1 [Compound 5]
0.1 to 1 µM,< 0.01 µM,,,CNC1=Nc2cc(-n3cc(C4CCCN4)nn3)c(Cl)cc2C12CCC2 (stereo not shown) [Compound A2]
0.01 to 0.1 µM,< 0.01 µM,,,CNc1cc(C)nc(Nc2ccc(OC)c(-n3cc([C@H]4CCCN4)nn3)c2F)n1 [Compound A4R]
> 1 µM,0.1 to 1 µM,,,CNc1cc(C)nc(Nc2ccc(OC)c(-n3cc(CNC(C)C)cn3)c2F)n1 [Compound A5]
,,> 10 µM,> 10 µM,CNc1cc(C)nc(Nc2ccc(Cl)c(C(=O)Nc3cn(C)cn3)c2)n1 [Compound 15]
0.1 to 1 µM,0.1 to 1 µM,,,"CNc1cc(C)nc(Nc2ccc(OC)c(-n3ncc4c3CCNC4)c2F)n1 [Compound A9, N2-(2-fluoro-4-methoxy-3-(4,5,6,7-tetrahydro-1H-pyrazolo[4,3-c]142yridine-1-yl)phenyl)-N4,6-dimethylpyrimidine-2,4-diamine]"
